Laboratory results: patent US20170216296A1, “METHODS OF TREATING HYPERGLYCEMIA” (Concert Pharmaceuticals, Inc., priority 2014, published 2017)

Experiments:
[1] = system: HbAlc; conditions: 100 patients with type 2 diabetes; cited from earlier work
[2] = system: HbAlc; assay: Phase 2 placebo-controlled clinical trial, HbAlc in whole blood; assay type: in vivo, human; conditions: for least square mean HbAlc value: 600 mg twice daily, preliminary, FIG. 1
Experimental: A Phase 2 placebo-controlled clinical trial of Compound (V) was conducted in patients with type 2 diabetic kidney disease and macroalbuminuria. The purpose of the trial was to compare Compound (V) to placebo in terms of safety and efficacy with respect to measures of renal function such as urinary albumin to creatinine ratio, serum creatinine levels, and estimated glomerular filtration rate. HbAlc was measured but was not an intended endpoint of the trial. Thus, while the study was controlled for other medications, it was not controlled for anti-glycemic medications nor were the placebo and treated groups matched for baseline HbAlc levels.
All patients enrolled in the clinical trial were concurrently treated with angiotensin modulators. The clinical trial consists of three parts, two of which were completed and a third part that is on-going. Part 1 was a double-blind, parallel, two-arm, placebo-controlled study evaluating the safety and efficacy of 600 mg of Compound (V) twice daily for 24 weeks. 182 patients were enrolled in this first part of the trial. Part 2 was a blinded 24-week extension study in which all patients who completed Part 1 were eligible to continue receiving 600 mg of Compound (V) or placebo twice daily. 143 patients were enrolled in this part of the clinical trial and have completed dosing. 123 of the 143 patients that were enrolled in Part 2 of the clinical trial completed Part 2. The combined 48 weeks of data from Parts 1 and 2 of the clinical trial have been analyzed. 102 patients enrolled in Part 3 which is a 48 week open-label extension study that is on-going. All patients who completed Part 2 were eligible to receive 600 mg of Compound (V) twice daily.
The key criteria for patients to be included in the clinical trial were (a) eGFR from 23 to 89 mL/min/1.73 m2, a measure of kidney function which indicates mild to moderately severe type 2 diabetic kidney disease; (b) having been on a stable angiotensin modulation regimen for a minimum of four weeks prior to initiating screening and nine weeks prior to initiating dosing; (c) blood pressure less than or equal to 145/90 mm Hg; (d) glycosylated hemoglobin Alc (HbAlc) less than or equal to 10.5%; and (e) UACR greater than or equal to 200 mg/g in male patients and 300 mg/g in female patients, ratios of albumin to creatinine that are indicative of substantial kidney damage in men and women, but not more than 5,000 mg/g, a ratio indicative of severe kidney disease. HbAlc in whole blood samples was measured by ion-exchange chromatography using a TOSOH HLC-723G8 HPLC analyzer.
The procedure is similar to the one described in the Laboratory Procedure Manual of the Centers for Disease Control and Prevention. See www.cdc.gov/nchs/data/nhanes/nhanes_11_12/GHB_met_G_Tosoh_G8.pdf. The TOSOH instrument can reliably detect HbAlc levels in the range of 4.0-16.8%.
Patients were sampled at weeks 0, 12, 24, 36 and 48 weeks (see FIG. 1). The value at 0 weeks was calculated as the mean of values recorded on Days −28, −7 and −1. In other words, the patients were tested 4 weeks before the trial, one week before the trial and one day before. The mean value of the measurements was recorded as Day 0 for the trial.

SMILES | effect on HbAlC [1] | lowering of HbAlc in the treated group relative to placebo ([2]; Part 1 and Part 2 (48 weeks), p=0.0001) | least square mean HbAlc value ([2]; after Part 1 and Part 2 of the trial (48 weeks)) | least square mean HbAlc value ([2]; beginning of the trial (week 0, mean of Days -28, -7 and -1), patients with type 2 diabetic kidney disease and macroalbuminuria) | effect on hemoglobin glycosylation ([2]; group receiving compound, sampled at weeks 0, 12, 24, 36 and 48) | drop in AlC ([2]; overall group change from baseline, FIG. 2 (week 12), placebo 0.23 increase, statistically significant) | patients with lower HbAlc after 12 weeks ([2]; week 12 change from baseline, number of patients/patients in arm, FIG. 2, placebo 33/79)
CC(=O)CCCCn1c(=O)c2c(ncn2C)n(C)c1=O [Pentoxifylline] | no effect | – | – | – | – | – | –
[2H]C([2H])([2H])[C@H](O)C([2H])([2H])CCCn1c(=O)c2c(ncn2C)n(C)c1=O [Compound (V)] | – | statistically significant | 7.1 | 7.7 | positive effect | 0.35 | 57/83
